Results: patent US20120329787A1, “FUNGICIDAL PYRANONES AND OXAZINONES” (E.I. DU PONT DE NEMOURS AND COMPANY, priority 2011, published 2012)
Marks after values point to notes of the source that are not given here.

Tests used:
Assay type in all cases: in vivo
Botrytis cinerea = assay: Test A: tomato Botrytis, spray on tomato seedlings the day before inoculation; conditions: 200 ppm test suspension
Method in brief: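 Visual disease rating after Botrytis cinerea spore inoculation one day post-treatment, incubation 48 h at 20 °C in saturated atmosphere then 3 days at 24 °C. Preventive foliar spray to run-off on tomato seedlings at 200 ppm (500 g/ha equivalent) or 40 ppm, acetone/water with surfactant.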

Septoria nodorum = assay: Test E: Septoria glume blotch, spray on wheat seedlings the day before inoculation; conditions: 200 ppm test suspension
Method in brief: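 Wheat seedlings received a run-off spray of test suspension, then were inoculated with Septoria nodorum one day later. Suspensions: 200 ppm (≈500 g/ha) or, where asterisked, 40 ppm, in 50/50 acetone/water containing 250 ppm Trem 014.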

[1] = system: Puccinia recondita f. sp. tritici; assay: Test H: wheat leaf rust, spray on wheat seedlings the day before inoculation; conditions: 200 ppm test suspension, sprayed before inoculation
Method in brief: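 Preventive test: one day after run-off spraying of seedlings at 200 ppm (some at 40 ppm), Puccinia recondita spores were applied. Disease was scored visually after 24 h saturated humidity plus 6 days, both at 20 °C.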

[2] = system: Erysiphe graminis f. sp. tritici; assay: Test I: wheat powdery mildew, spray on wheat seedlings the day before inoculation; conditions: 200 ppm test suspension
Method in brief: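 Protectant test: spore-dust inoculation one day after run-off spraying, then 7 days in a 20° C growth chamber before visual scoring. Suspensions were 200 ppm, or 40 ppm where flagged, in 50/50 acetone-water containing 250 ppm Trem 014.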

Phytophthora infestans = conditions: 200 ppm test suspension; tomato seedlings
Rhizoctonia solani = assay: Test D: turf brown patch, spray on creeping bent grass seedlings the day before inoculation; conditions: 200 ppm test suspension
Text: General protocol for preparing test suspensions for Tests A-I: the test compounds were first dissolved in acetone in an amount equal to 3% of the final volume and then suspended at the desired concentration (in ppm) in acetone and purified water (50/50 mix by volume) containing 250 ppm of the surfactant Trem® 014 (polyhydric alcohol esters). The resulting test suspensions were then used in Tests A-I. Spraying a 200 ppm test suspension to the point of run-off on the test plants was the equivalent of a rate of 500 g/ha. […] (An asterisk “*” next to the rating value indicates a 40 ppm test suspension was used.) The test suspension was sprayed to the point of run-off on creeping bent grass (Agrostis sp.) seedlings. The following day, the seedlings were inoculated with a bran and mycelial slurry of Rhizoctonia solani (the causal agent of turf brown patch) and incubated in a saturated atmosphere at 27° C. for 48 h, and then moved to a growth chamber at 27° C. for 3 days, after which time disease ratings were made. […] A dash (-) indicates no test results. All results are for 200 ppm except where followed by an asterisk “*”, which indicates a 40 ppm.

Septoria tritici = assay: Test F: wheat leaf blotch, spray on wheat seedlings the day before inoculation; conditions: 200 ppm test suspension
Method in brief: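 Protectant test: Septoria tritici spores inoculated one day after run-off spraying of test suspension (200 ppm, equal to 500 g/ha, or 40 ppm; acetone/water, 250 ppm Trem 014). Plants kept 48 h at 24° C in saturated air and 19 further days at 20° C, then disease scored visually.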

Alternaria solani = assay: Test B: tomato early blight, spray on tomato seedlings the day before inoculation
Method in brief: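 Visual blight ratings were made after 48 h saturated incubation at 27 °C plus 5 days at 20 °C, following A. solani spore inoculation one day after run-off spraying at 200 ppm (or 40 ppm where marked).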

Compound	Test A rating (100 = 100% disease control, 0 = no disease control) (Botrytis cinerea)	Test E rating (100 = 100% disease control, 0 = no disease control) (Septoria nodorum)	Test H rating (100 = 100% disease control, 0 = no disease control) [1]	Test I rating (100 = 100% disease control, 0 = no disease control) [2]	Test C rating (100 = 100% disease control, 0 = no disease control) (Phytophthora infestans)	Test D rating (100 = 100% disease control, 0 = no disease control) (Rhizoctonia solani)	Test F rating (100 = 100% disease control, 0 = no disease control) (Septoria tritici)	Test B rating (100 = 100% disease control, 0 = no disease control) (Alternaria solani; 200 ppm test suspension)	Test B rating (100 = 100% disease control, 0 = no disease control) (Alternaria solani; 40 ppm test suspension (asterisk))
Cc1noc(=O)c(-c2cccc(F)c2)c1-c1ccccc1 [Compound 1]	0%	0%	0%	0%	0%	0%	37%	–	–
Cc1noc(=O)c(-c2ccc(Cl)cc2)c1-c1c(F)cccc1F [Compound 2]	47%	0%	0%	92%	17%	0%	97%	–	–
Cc1noc(=O)c(-c2c(F)cc(F)cc2F)c1-c1ccc(Cl)cc1 [Compound 3]	99%	0%	98%	99%	9%	78%	99%	100%	–
Cc1noc(=O)c(-c2cccc(F)c2)c1-c1c(F)cccc1F [Compound 4]	0%	0%	0%	0%	8%	0%	0%	–	–
Cc1noc(=O)c(-c2c(F)cc(F)cc2F)c1-c1ccc(C(F)(F)F)cc1 [Compound 12]	0%	0%	0%	98%	0%	0%	–	–	99* %
Cc1noc(=O)c(-c2ccc(F)cc2F)c1-c1ccc(Cl)cc1 [Compound 13]	0%	0%	91%	99%	0%	0%	–	9%	–
Cc1noc(=O)c(-c2ccc(F)cc2Cl)c1-c1ccc(Br)cc1 [Compound 14]	0%	0%	0%	0%	0%	0%	–	5%	–
Cc1noc(=O)c(-c2c(F)cccc2F)c1-c1ccc(Br)cc1 [Compound 15]	0%	0%	91%	98%	0%	0%	–	96%	–
Cc1noc(=O)c(-c2c(F)cc(F)cc2F)c1-c1ccc(Cl)c(F)c1 [Compound 16]	0%	0%	0%	0%	0%	0%	97%	0%	–
COc1cc(OC)cc(-c2c(-c3ccccc3F)noc(=O)c2-c2ccc(F)cc2F)c1 [Compound 21]	0%	0%	0%	0%	0%	0%	0%	0%	–
COc1cc(OC)cc(-c2c(-c3ccccc3F)noc(=O)c2-c2c(F)cccc2F)c1 [Compound 22]	0%	0%	0%	0%	0%	8%	0%	0%	–
